Values belong to the compound of their own block, whether it stands above or below them.
Molecular target: T1, Human recombinant DHX9 protein (Homo sapiens, UniProt Q08211)
T1 construct: purchased Viva
Assay: DHX9 ATPase assay (ADP-Glo biochemical assay)
Settings: for DHX9 Biochemical Max Inhibition: maximum inhibition in ATPase assay, 10 μM Aurintricarboxylic acid = 100%; for IC50: read-out: DHX9 Biochemical Inflection Point

T1 sequence (Q08211 whole entry): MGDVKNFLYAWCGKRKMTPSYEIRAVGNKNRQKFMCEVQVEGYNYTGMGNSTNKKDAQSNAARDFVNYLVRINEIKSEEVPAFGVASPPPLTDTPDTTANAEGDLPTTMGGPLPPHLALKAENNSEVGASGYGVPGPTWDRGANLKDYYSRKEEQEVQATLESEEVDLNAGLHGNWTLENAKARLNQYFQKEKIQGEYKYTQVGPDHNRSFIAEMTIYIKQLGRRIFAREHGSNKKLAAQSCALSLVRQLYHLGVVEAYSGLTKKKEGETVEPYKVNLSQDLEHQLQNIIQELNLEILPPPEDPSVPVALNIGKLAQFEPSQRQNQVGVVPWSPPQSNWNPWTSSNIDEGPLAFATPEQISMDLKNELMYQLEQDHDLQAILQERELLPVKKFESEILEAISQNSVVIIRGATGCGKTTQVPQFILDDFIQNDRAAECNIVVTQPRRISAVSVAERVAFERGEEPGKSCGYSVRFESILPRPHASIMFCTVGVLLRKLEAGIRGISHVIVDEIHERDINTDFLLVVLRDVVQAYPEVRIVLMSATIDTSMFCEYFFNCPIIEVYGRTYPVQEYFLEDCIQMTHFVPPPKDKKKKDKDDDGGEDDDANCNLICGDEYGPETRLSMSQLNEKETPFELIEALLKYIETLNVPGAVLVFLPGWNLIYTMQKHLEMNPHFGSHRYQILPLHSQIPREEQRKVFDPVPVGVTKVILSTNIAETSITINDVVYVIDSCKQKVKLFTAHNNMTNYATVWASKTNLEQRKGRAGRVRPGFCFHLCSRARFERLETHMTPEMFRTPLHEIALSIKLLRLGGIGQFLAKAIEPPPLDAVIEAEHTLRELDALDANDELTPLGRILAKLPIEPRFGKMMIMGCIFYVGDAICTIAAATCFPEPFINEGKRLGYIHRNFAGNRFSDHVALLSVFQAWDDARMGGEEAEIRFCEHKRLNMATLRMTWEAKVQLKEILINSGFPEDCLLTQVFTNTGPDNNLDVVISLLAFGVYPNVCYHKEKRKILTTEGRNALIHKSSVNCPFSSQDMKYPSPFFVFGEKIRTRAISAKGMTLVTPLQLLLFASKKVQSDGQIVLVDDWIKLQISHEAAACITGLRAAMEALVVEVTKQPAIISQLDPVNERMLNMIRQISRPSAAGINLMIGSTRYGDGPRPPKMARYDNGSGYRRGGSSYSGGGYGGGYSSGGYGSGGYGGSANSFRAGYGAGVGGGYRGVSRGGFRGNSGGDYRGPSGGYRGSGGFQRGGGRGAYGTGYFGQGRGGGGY

DHX9 Biochemical Max Inhibition: 50.4%
IC50: 7270 nM
SMILES: CS(=O)(=O)Nc1cccc(NC(=O)c2cc(-c3ccccc3)ccn2)c1 [Example 2]

DHX9 Biochemical Max Inhibition: 37.7%
IC50: 2970 nM
SMILES: CS(=O)(=O)Nc1cccc(NC(=O)c2ccc(-c3ccccc3)s2)c1 [Example 5]

DHX9 Biochemical Max Inhibition: 73.3%
IC50: 804 nM
SMILES: Cc1nc(-c2cc(C(=O)Nc3cccc(NS(C)(=O)=O)c3)co2)cs1 [Example 7]

DHX9 Biochemical Max Inhibition: 47.7%
IC50: 1760 nM
SMILES: Cc1ccccc1-c1nc(C(=O)Nc2cccc(NS(C)(=O)=O)c2)cs1 [Example 8]

DHX9 Biochemical Max Inhibition: 48.3%
IC50: 3940 nM
SMILES: CS(=O)(=O)Nc1cccc(NC(=O)c2ccccc2N2CCCCC2)c1 [Example 9]

DHX9 Biochemical Max Inhibition: 52.5%
IC50: 2390 nM
SMILES: CS(=O)(=O)Nc1cccc(NC(=O)c2csc(NC3CC3)n2)c1 [Example 13]

DHX9 Biochemical Max Inhibition: 70.4%
IC50: 5090 nM
SMILES: CS(=O)(=O)Nc1cccc(NC(=O)c2ccc(C(=O)NC3CC3)cc2)c1 [Example 14]

DHX9 Biochemical Max Inhibition: 50.7%
IC50: 2540 nM
SMILES: Cc1cc(C(=O)Nc2cccc(NS(C)(=O)=O)c2)nn1C1CCOCC1 [Example 17]

DHX9 Biochemical Max Inhibition: 58.6%
IC50: 92400 nM
SMILES: CCn1ncc(C(=O)Nc2cccc(NS(C)(=O)=O)c2)c1C1CC1 [Example 18]

DHX9 Biochemical Max Inhibition: 49.6%
IC50: 6330 nM
SMILES: CS(=O)(=O)Nc1cccc(NC(=O)c2csc(N3CCCCC3)n2)c1 [Example 19]

DHX9 Biochemical Max Inhibition: 72.4%
IC50: 3850 nM
SMILES: CS(=O)(=O)Nc1cccc(NC(=O)c2ccc(-c3nnn[nH]3)cc2)c1 [Example 21]

DHX9 Biochemical Max Inhibition: 71.7%
IC50: 1220 nM
SMILES: Cc1nc(COc2ccc(C(=O)Nc3cccc(NS(C)(=O)=O)c3)cc2)cs1 [Example 22]

DHX9 Biochemical Max Inhibition: 62.5%
IC50: 1040 nM
SMILES: CS(=O)(=O)Nc1cccc(NC(=O)c2csc(-c3ccc(F)cc3)n2)c1 [Example 24]

DHX9 Biochemical Max Inhibition: 67.1%
IC50: 2320 nM
SMILES: Cc1cc(C(=O)Nc2cccc(NS(C)(=O)=O)c2)c(C)n1C1CC1 [Example 25]

DHX9 Biochemical Max Inhibition: 60.6%
IC50: 56900 nM
SMILES: Cc1ccc(C)n1-c1sccc1C(=O)Nc1cccc(NS(C)(=O)=O)c1 [Example 26]

DHX9 Biochemical Max Inhibition: 81.3%
IC50: 1430 nM
SMILES: Cn1nc(C(=O)Nc2cccc(NS(C)(=O)=O)c2)cc1C1CCCC1 [Example 29]

DHX9 Biochemical Max Inhibition: 69.1%
IC50: 34100 nM
SMILES: CS(=O)(=O)Nc1cccc(NC(=O)c2csc(S(=O)(=O)N3CCOCC3)c2)c1 [Example 30]

DHX9 Biochemical Max Inhibition: 67.9%
IC50: 5770 nM
SMILES: CS(=O)(=O)Nc1cccc(NC(=O)c2csc(C3CC3)n2)c1 [Example 32]

DHX9 Biochemical Max Inhibition: 69.3%
IC50: 1490 nM
SMILES: CS(=O)(=O)Nc1cccc(NC(=O)c2cnn(Cc3ccccc3)c2)c1 [Example 35, 1-benzyl-N-(3-methanesulfonamidophenyl)pyrazole-4-carboxamide]

DHX9 Biochemical Max Inhibition: 56.3%
IC50: 1860 nM
SMILES: CS(=O)(=O)Nc1cccc(NC(=O)c2cc(-c3ccccc3)[nH]n2)c1 [Example 36]

DHX9 Biochemical Max Inhibition: 55.3%
IC50: 994 nM
SMILES: CS(=O)(=O)Nc1cccc(NC(=O)c2ccc(-n3cccn3)cc2)c1 [Example 39]

DHX9 Biochemical Max Inhibition: 71.4%
IC50: 544 nM
SMILES: CS(=O)(=O)Nc1cccc(NC(=O)c2nc(-c3ccccc3)cs2)c1 [Example 42]

DHX9 Biochemical Max Inhibition: 68.7%
IC50: 373 nM
SMILES: CS(=O)(=O)Nc1cccc(NC(=O)c2cnn(-c3ncccn3)c2)c1 [Example 43]

DHX9 Biochemical Max Inhibition: 73.9%
IC50: 123 nM
SMILES: Cc1ccccc1-c1csc(C(=O)Nc2cccc(NS(C)(=O)=O)c2)c1 [Example 46]

DHX9 Biochemical Max Inhibition: 67.7%
IC50: 264 nM
SMILES: Cc1cccc(-c2csc(C(=O)Nc3cccc(NS(C)(=O)=O)c3)c2)c1 [Example 47]

DHX9 Biochemical Max Inhibition: 67.5%
IC50: 105 nM
SMILES: Cc1ccc(-c2csc(C(=O)Nc3cccc(NS(C)(=O)=O)c3)c2)cc1 [Example 48]

DHX9 Biochemical Max Inhibition: 78.1%
IC50: 589 nM
SMILES: CS(=O)(=O)Nc1cccc(NC(=O)c2cc(-c3ccc(O)cc3)[nH]n2)c1 [Example 64]

DHX9 Biochemical Max Inhibition: 70.1%
IC50: 980 nM
SMILES: COc1cccc(-c2csc(C(=O)Nc3cccc(NS(C)(=O)=O)c3)c2)c1C [Example 67]

DHX9 Biochemical Max Inhibition: 70.3%
SMILES: COc1ccc(C)c(-c2csc(C(=O)Nc3cccc(NS(C)(=O)=O)c3)c2)c1 [Example 68]

DHX9 Biochemical Max Inhibition: 66.5%
IC50: 1860 nM
SMILES: CS(=O)(=O)Nc1cccc(NC(=O)c2cc(Cc3ccccc3)cs2)c1 [Example 71]

DHX9 Biochemical Max Inhibition: 61.5%
IC50: 698 nM
SMILES: COc1ccc(-c2cc(C(=O)Nc3cccc(NS(C)(=O)=O)c3)n[nH]2)cc1 [Example 78]

DHX9 Biochemical Max Inhibition: 70.3%
IC50: 210 nM
SMILES: CS(=O)(=O)Nc1cccc(NC(=O)c2cc(C(=O)NCC3(O)CCCCC3)cs2)c1 [Example 105]

DHX9 Biochemical Max Inhibition: 72.3%
IC50: 67.9 nM
SMILES: COc1ccc(NC(=O)c2csc(C(=O)Nc3cccc(NS(C)(=O)=O)c3)c2)cn1 [Example 106]

Continued, compound first:

SMILES: CS(=O)(=O)Nc1cccc(NC(=O)c2ccc(OCc3ccccc3)cc2)c1 [Example 3]
DHX9 Biochemical Max Inhibition: 44.3%
IC50: 1230 nM

SMILES: CS(=O)(=O)Nc1cccc(NC(=O)c2cccc(OCc3ccccc3)c2)c1 [Example 4]
DHX9 Biochemical Max Inhibition: 55.1%
IC50: 3050 nM

SMILES: Cc1ccc(Nc2cccc(C(=O)Nc3cccc(NS(C)(=O)=O)c3)c2)nn1 [Example 10]
DHX9 Biochemical Max Inhibition: 79.8%
IC50: 1540 nM

SMILES: Cc1nnc(-c2ccc(C(=O)Nc3cccc(NS(C)(=O)=O)c3)cc2)o1 [Example 11]
DHX9 Biochemical Max Inhibition: 47.5%
IC50: 5650 nM

SMILES: CS(=O)(=O)Nc1cccc(NC(=O)c2ccc(-n3cccc3)cc2)c1 [Example 23]
DHX9 Biochemical Max Inhibition: 51.4%
IC50: 943 nM

SMILES: CS(=O)(=O)Nc1cccc(NC(=O)c2ccc(S(=O)(=O)Nc3ccncc3)cc2)c1 [Example 27]
DHX9 Biochemical Max Inhibition: 63.8%
IC50: 1610 nM

SMILES: CS(=O)(=O)Nc1cccc(NC(=O)c2cccc(OCc3cccs3)c2)c1 [Example 28]
DHX9 Biochemical Max Inhibition: 76.4%
IC50: 4080 nM

SMILES: Cc1cc(C)n(Cc2ccc(C(=O)Nc3cccc(NS(C)(=O)=O)c3)o2)n1 [Example 34]
DHX9 Biochemical Max Inhibition: 70.4%
IC50: 4850 nM

SMILES: CS(=O)(=O)Nc1cccc(NC(=O)c2cccc(-c3ccccc3)c2)c1 [Example 37]
DHX9 Biochemical Max Inhibition: 67%
IC50: 1720 nM

SMILES: CS(=O)(=O)Nc1cccc(NC(=O)c2ccc(-c3ccccc3)cc2)c1 [Example 38]
DHX9 Biochemical Max Inhibition: 38.6%
IC50: 345 nM

SMILES: CS(=O)(=O)Nc1cccc(NC(=O)c2cc(-c3ccccc3)c(Br)s2)c1 [Example 98, 5-bromo-N-(3-(methylsulfonamido)phenyl)-4-phenylthiophene-2-carboxamide]
DHX9 Biochemical Max Inhibition: 77.7%
IC50: 543 nM

SMILES: CS(=O)(=O)Nc1cccc(NC(=O)c2cc(-c3ccccc3)c(C(=O)O)s2)c1 [Example 101, 5-[(3-methanesulfonamidophenyl)carbamoyl]-3-phenylthiophene-2-carboxylic acid]
DHX9 Biochemical Max Inhibition: 79.1%
IC50: 54 nM

SMILES: CS(=O)(=O)Nc1cccc(NC(=O)c2cc(C(=O)NCCc3cccnc3)cs2)c1 [Example 103]
DHX9 Biochemical Max Inhibition: 71.7%
IC50: 126 nM

SMILES: Cc1ccc(NC(=O)c2csc(C(=O)Nc3cccc(NS(C)(=O)=O)c3)c2)cc1Cl [Example 104]
DHX9 Biochemical Max Inhibition: 67.3%
IC50: 504 nM

SMILES: Cc1c(NC(=O)c2csc(C(=O)Nc3cccc(NS(C)(=O)=O)c3)c2)c(=O)n(-c2ccccc2)n1C [Example 107]
DHX9 Biochemical Max Inhibition: 74.6%
IC50: 168 nM

SMILES: CS(=O)(=O)Nc1cccc(NC(=O)c2cc(C(=O)Nc3ccc(OC(F)(F)F)cc3)cs2)c1 [Example 108]
DHX9 Biochemical Max Inhibition: 64.4%
IC50: 708 nM

SMILES: CC(NC(=O)c1csc(C(=O)Nc2cccc(NS(C)(=O)=O)c2)c1)c1ccccc1 (stereo not shown) [Example 110]
DHX9 Biochemical Max Inhibition: 68.9%
IC50: 81.9 nM

SMILES: CS(=O)(=O)Nc1cccc(NC(=O)c2cc(C(=O)NC3Cc4ccccc4C3)cs2)c1 [Example 112]
DHX9 Biochemical Max Inhibition: 68.9%
IC50: 101 nM

SMILES: Cc1cc(NC(=O)c2csc(C(=O)Nc3cccc(NS(C)(=O)=O)c3)c2)ccc1Cl [Example 113]
DHX9 Biochemical Max Inhibition: 59.7%
IC50: 515 nM

SMILES: CN(C)C(=O)c1ccc(NC(=O)c2csc(C(=O)Nc3cccc(NS(C)(=O)=O)c3)c2)cc1 [Example 114]
DHX9 Biochemical Max Inhibition: 73.5%
IC50: 71.4 nM

SMILES: CS(=O)(=O)Nc1cccc(NC(=O)c2cc(C(=O)Nc3ccccc3Oc3ccccc3)cs2)c1 [Example 115]
DHX9 Biochemical Max Inhibition: 75%
IC50: 436 nM

SMILES: CS(=O)(=O)Nc1cccc(NC(=O)c2cc(C(=O)NCc3ccc(N4CCOCC4)cc3)cs2)c1 [Example 116]
DHX9 Biochemical Max Inhibition: 74.5%
IC50: 70.8 nM

SMILES: CS(=O)(=O)Nc1cccc(NC(=O)c2cc(C(=O)Nc3ccc(Oc4ccccc4)cc3)cs2)c1 [Example 117]
DHX9 Biochemical Max Inhibition: 52.7%
IC50: 686 nM

SMILES: CC(C)Oc1ccc(NC(=O)c2csc(C(=O)Nc3cccc(NS(C)(=O)=O)c3)c2)cc1 [Example 118]
DHX9 Biochemical Max Inhibition: 66.2%
IC50: 99.4 nM

SMILES: CS(=O)(=O)Nc1cccc(NC(=O)c2cc(C(=O)Nc3cccc(OC(F)(F)F)c3)cs2)c1 [Example 120]
DHX9 Biochemical Max Inhibition: 70.4%
IC50: 50.5 nM

SMILES: CC(C)Oc1cccc(NC(=O)c2csc(C(=O)Nc3cccc(NS(C)(=O)=O)c3)c2)c1 [Example 121]
DHX9 Biochemical Max Inhibition: 68.9%
IC50: 1070 nM

SMILES: CS(=O)(=O)Nc1cccc(NC(=O)c2cc(C(=O)Nc3ccc(OCCN4CCOCC4)cc3)cs2)c1 [Example 122]
DHX9 Biochemical Max Inhibition: 69.7%
IC50: 196 nM

SMILES: CS(=O)(=O)Nc1cccc(NC(=O)c2cc(C(=O)Nc3cccc4c3CCO4)cs2)c1 [Example 123]
DHX9 Biochemical Max Inhibition: 68.3%
IC50: 59.2 nM
